Test results from patent US11786517B2, “Methods of treatment using a JAK inhibitor compound” (THERAVANCE BIOPHARMA R&D IP, LLC, priority 2017, dated 2023).

Experiments:
[1] = system: IL-27 induced CXCL10 secretion; test: Inhibition of IL-27 induced CXCL10 in human 3D airway cultures; assay type: cell-based; settings: 192 h, at 0.1 μM (first of two values so printed), 8 days, ±STDV
Protocol: (§1) EpiAirway tissue cultures were obtained from Mattek (AIR-100). Cultures were derived from asthmatic donors. In a cell culture insert, human derived tracheal/bronchial epithelial cells were grown and differentiated on a porous membrane support, allowing an air-liquid interface with warmed culture medium below the cells and a gaseous test atmosphere above. Tissues were cultured in maintenance media (Mattek, AIR-100-MM) in a 37° C., 5% CO2 humidified incubator. Four donors were tested. On Day 0, tissue cultures were treated with test compounds at 10 μM, 1 μM and/or 0.1 μM. Compounds were diluted in dimethyl sulfoxide (DMSO, Sigma) to a final concentration of 0.1%. DMSO at 0.1% was used as a vehicle control. Test compounds were incubated with cultures for 1 hour at 37° C., 5% CO2, followed by the addition of pre-warmed media containing IFNγ (R&D Systems) or IL-27 (R&D Systems) at a final concentration at 100 ng/ml. Tissue cultures were maintained for 8 days. Media was replaced every 2 days with fresh media containing compounds and IFNγ or IL-27. On Day 8, tissue cultures and supernatants were collected for analysis. […] Data is expressed as % Inhibition+/−standard deviation (±STDV). Percent inhibition was determined by compound inhibitory potency against IFNγ or IL-27 induced CXCL10 or CXCL9 secretion compared to vehicle treated cells. […]

[2] = system: IFNγ induced CXCL10 secretion; test: Inhibition of IFNγ induced CXCL10 in human 3D airway cultures; assay type: cell-based; settings: at μM (so in the source), 8 days, ±STDV
Protocol: as §1

[3] = system: IL-6 induced pSTAT3 in rat retina/choroid; test: Pharmacodynamic assay: inhibition of IL6-induced pSTAT3 in rats; assay type: in vivo, Female Lewis rats; settings: 3 day pre-treatment
Protocol: The ability of a single intravitreal administration of test compound to inhibit IL-6 induced pSTAT3 was measured in rat retina/choroid homogenates.
Suspension formulations were prepared by combining crystalline compound 1 of Example 1 with 0.5% hydroxypropyl methylcellulose (HPMC E5 LV), 0.02% Tween 80, and 0.9% sodium chloride in purified water to attain target concentrations of 3 mg/mL and 10 mg/mL.
Female Lewis rats were intravitreally (IVT) dosed (5 μL per eye) with the suspension formulations or with the drug vehicle. Three days later, IL-6 (Peprotech; 0.1 mg/mL; 5 μL per eye) or vehicle was intravitreally administered to induce pSTAT3. Ocular tissues were dissected one hour after the second IVT injection with IL-6. The retina/choroid tissues were homogenized and pSTAT3 levels were measured using an ELISA (Cell Signaling Technology). The percent inhibition of IL-6-induced pSTAT3 was calculated in comparison to the vehicle/vehicle and vehicle/IL-6 groups. Inhibition of greater than 100% reflects a reduction of pSTAT3 levels to below those observed in the vehicle/vehicle group.

[4] = Ocular pharmacokinetics in rabbit eyes; assay type: in vivo, New Zealand white rabbits; settings: intravitreal injection, listed as compound of the invention
Protocol: The objective of this assay was to determine the pharmacokinetics of the test compound in rabbit ocular tissues.
The compound of the invention, 5-ethyl-2-fluoro-4-(3-(5-(1-methylpiperidin-4-yl)-4,5,6,7-tetrahydro-1H-imidazo[4,5-c]pyridin-2-yl)-1H-indazol-6-yl)phenol (1) was dissolved in either 10% 2-hydroxypropyl-β-cyclodextrin to attain a target concentration of 4 mg/mL or in purified water to attain a target concentration of 1 mg/mL. Bilateral intravitreal injection (50 μL/eye) of the solution of test compound was administered to New Zealand white rabbits in two dose groups, 200 μg/eye and 50 μg/eye, respectively, for the cyclodextrin and water vehicle formulations, respectively. The test compound concentration was measured in ocular tissues: vitreous, aqueous, retina/choroid and iris-ciliary body at pre-determined time points post injection (30 min, 4 h, 1 d, 3 d, 7 d, 14 d). Two rabbits (four eyes) were dosed for each time point.
A suspension formulation was prepared by combining crystalline compound 1 of Example 1 with 0.5% hydroxypropyl methylcellulose (HPMC E5)+0.02% Tween 80 to attain a target concentration of 10 mg/mL. Bilateral intravitreal injection (50 μL/eye) of the suspension of test compound was administered to New Zealand white rabbits (500 μg/eye). The test compound concentration was measured in ocular tissues as in the […] at 30 min, 2 wks, 4 wks, 6 wks, and 8 wks post injection. […] The behavior is consistent with the solubility of compound 1 in the vehicle and the ocular pharmacokinetic behavior in the solution formulation. The drug concentration in plasma was measured and found to be at least 3 orders of magnitude lower than the concentration in vitreous tissue.

CCc1cc(O)c(F)cc1-c1ccc2c(-c3nc4c([nH]3)CCN(C3CCN(C)CC3)C4)n[nH]c2c1 [compound 1, 5-ethyl-2-fluoro-4-(3-(5-(1-methylpiperidin-4-yl)-4,5,6,7-tetrahydro-1H-imidazo[4,5-c]pyridin-2-yl)-1H-indazol-6-yl)phenol]
inhibition at 0.1 µM [1]: 98%
inhibition of IFNγ induced CXCL10 secretion [2]: 71%±19
inhibition of IL-6-induced pSTAT3 ([3]; 15 μg intravitreal suspension): 33%
inhibition of IL-6-induced pSTAT3 ([3]; 50 μg intravitreal suspension): 109%
drug concentration in plasma lower than concentration in vitreous tissue [4]: at least three orders of magnitude lower
